From US20210401880A1, “Pharmaceutical Composition For Preventing Or Treating Obesity, Containing CYCLO(HIS-PRO) As Active Ingredient” (Novmetapharma Co., Ltd., priority 2018, published 2021)

Key:
Format in all cases: in vivo, human
[1] = system: leptin; assay: Clinical trial: plasma leptin level (leptin resistance)
Method: (§1) We conducted a clinical trial designed as randomized, placebo-controlled, double-blind, and two-way crossover on drug interaction in patients with type 2 diabetes mellitus. The clinical trial was conducted for 149 patients over a total of 16 weeks, in which the screening period was 2 weeks, the treatment period was 12 weeks, and the period of the evaluation of safety and follow-up was 2 weeks.
(§2) In the screening stage, 64 subjects were selected from 149 participants, and the subjects who met the selection criteria were fasted for 2 hours before and after breakfast each day and subjected to a 2-week evaluation process of measuring and recording blood glucose levels. In the treatment stage, capsules containing placebo or CHP with different doses were randomly administered to 64 selected subjects once a day for 12 consecutive weeks.
(§3) In the above experiment, a capsule containing CHP with a different dose or a placebo corresponding thereto was used, and each subject received a two-week dose (18 capsules=14+4) at one visit and was instructed to take 1 capsule before bedtime every day. In this case, the anti-diabetic drugs and other prescribed drugs currently being used were continuously taken. Each subject was assigned at the same rate as follows and administered with a placebo or a compound with a different dose, respectively. • Administration Group A: 3 mg of CHP+23 mg of zinc—16 subjects • Administration Group B: 9 mg of CHP+23 mg of zinc—16 subjects • Administration Group C: 15 mg of CHP+23 mg of zinc—16 subjects • Administration Group D: placebo (control)—16 subjects
(§4) The present inventors confirmed the improvement of body mass index (BMI) and the improvement of leptin resistance, and the results are shown in Tables 3 and 4.
Leptin is an appetite suppressing protein secreted from adipose cells, and is known as a hormone to act on the brain after being secreted from adipose tissue to suppress appetite and activate metabolism in the body, thereby reducing body weight. In the case of humans, the more obese people (the more adipose tissue), the higher the concentration of leptin in the blood. This indicates the resistance to leptin action.

[2] = system: glycated hemoglobin (HbA1c); assay: Clinical trial: change in concentration of glycated hemoglobin (HbA1c) over 12 weeks
Method: as §1, §2, §3
The present inventors observed the change in concentration of HbA1c during the 12-week dosing period. Since the blood glucose level measured at one time point can change due to various factors, the change in glycated hemoglobin (HbA1c) was checked for the purpose of determining the pattern of long-term glycemic control, and the results are shown in Table 1 and FIG. 1.

[3] = Clinical trial: improvement of body mass index (BMI)
Method: as §1, §2, §3, §4

[4] = Clinical trial: change in body weight over 12 weeks
Method: as §1, §2, §3
The present inventors observed the change in body weight of subjects through the 12-week experiment, and the results are shown in Table 2 and FIG. 2.

[5] = system: patients with type 2 diabetes mellitus; assay: Clinical trial: evaluation of safety; details: CHP administration groups (3, 9, 15 mg of CHP+23 mg of zinc once a day, 12 weeks) vs placebo
Method: as §1, §2
In the above experiment, a capsule containing CHP with a different dose or a placebo corresponding thereto was used, and each subject received a two-week dose (18 capsules=14+4) at one visit and was instructed to take 1 capsule before bedtime every day. In this case, the anti-diabetic drugs and other prescribed drugs currently being used were continuously taken. […]

[6] = Administration Group A: 3 mg of CHP+23 mg of zinc once a day
[7] = Administration Group A: 3 mg of CHP+23 mg of zinc once a day, Baseline (Week 0)
[8] = Administration Group A: 3 mg of CHP+23 mg of zinc once a day, Week 12
[9] = Administration Group B: 9 mg of CHP+23 mg of zinc once a day
[10] = Administration Group B: 9 mg of CHP+23 mg of zinc once a day, Baseline (Week 0)
[11] = Administration Group B: 9 mg of CHP+23 mg of zinc once a day, Week 12
[12] = Administration Group C: 15 mg of CHP+23 mg of zinc once a day
[13] = Administration Group C: 15 mg of CHP+23 mg of zinc once a day, Baseline (Week 0)
[14] = Administration Group C: 15 mg of CHP+23 mg of zinc once a day, Week 12
[15] = all patient groups receiving CHP (3, 9, 15 mg+23 mg of zinc), 12 weeks

O=C1NC(Cc2c[nH]cn2)C(=O)N2CCCC12 (centres unmarked) [CHP, cyclo(his-pro)]
Plasma leptin level, Change Value (From Week 0 to Week 12), Average [1, 6]: 0.59 | Plasma leptin level, Average [1, 7]: 10.93 | Plasma leptin level, Average [1, 8]: 9.66 | Plasma leptin level, Change Value (From Week 0 to Week 12), Average [1, 9]: −3.42 | plasma leptin level at week 12 compared to the reference value [1, 9]: reduced to a statistically significant level | Plasma leptin level, Average [1, 10]: 19.85 | Plasma leptin level, Average [1, 11]: 9.90 | Plasma leptin level, Change Value (From Week 0 to Week 12), Average [1, 12]: −3.39 | plasma leptin level at week 12 compared to the reference value [1, 12]: reduced to a statistically significant level | Plasma leptin level, Average [1, 13]: 12.93 | Plasma leptin level, Average [1, 14]: 10.59 | HbA1c, Change Value (From Week 0 to Week 12), Average [2, 6]: −0.21% | level of HbA1c at week 12 versus Administration Group D (control) [2, 6]: lower than that of Administration Group D | HbA1c, Average ([2]; Administration Group A: 3 mg of CHP+23 mg of zinc once a day, Baseline (Week 0), type 2 diabetes patients): 8.25% | HbA1c, Average [2, 8]: 8.04% | HbA1c, Change Value (From Week 0 to Week 12), Average [2, 9]: −0.17% | level of HbA1c at week 12 versus Administration Group D (control) [2, 9]: lower than that of Administration Group D | HbA1c, Average [2, 10]: 8.06% | HbA1c, Average [2, 11]: 7.90% | HbA1c, Change Value (From Week 0 to Week 12), Average [2, 12]: −0.43% | level of HbA1c over time (FIG. 1) [2, 12]: reduced consistently until week 8 | HbA1c, Average [2, 13]: 8.49% | HbA1c, Average [2, 14]: 8.08% | level of HbA1c compared to the control [2, 15]: reduced compared to the control | Body mass index (BMI), Change Value (From Week 0 to Week 12), Average [3, 6]: −0.27 kg/m^2 | Body mass index (BMI), Average [3, 7]: 37.18 kg/m^2 | Body mass index (BMI), Average [3, 8]: 36.45 kg/m^2 | Body mass index (BMI), Change Value (From Week 0 to Week 12), Average [3, 9]: 0.16 kg/m^2 | Body mass index (BMI), Average [3, 10]: 36.29 kg/m^2 | Body mass index (BMI), Average [3, 11]: 36.59 kg/m^2 | Body mass index (BMI), Change Value (From Week 0 to Week 12), Average [3, 12]: −0.28 kg/m^2 | Body mass index (BMI), Average [3, 13]: 37.23 kg/m^2 | Body mass index (BMI), Average [3, 14]: 37.48 kg/m^2 | Body weight, Change Value (From Week 0 to Week 12), Average [4, 6]: -0.73 kg | Body weight, Average [4, 7]: 109.11 kg | Body weight, Average [4, 8]: 108.28 kg | Body weight, Average [4, 10]: 103.56 kg | Body weight, Average [4, 11]: 105.19 kg | Body weight, Change Value (From Week 0 to Week 12), Average [4, 12]: -0.92 kg | body weight over time (FIG. 2) [4, 12]: reduced consistently until week 12 | Body weight, Average [4, 13]: 103.94 kg | Body weight, Average [4, 14]: 104.12 kg | weight gain / body weight compared to the control [4, 15]: less than the control, or the body weight was reduced | side effects (evaluation of safety) [5]: mild and moderate side effects that are not related to the CHP were observed
